Results as given in patent US20240116985A1, “STAPLED PEPTIDES AND METHODS THEREOF” (priority 2020, published 2024).
pIC50: −log10 of the molar value. Values after ≈ are worked out from the molar mass of the structure shown. Where two headings read alike, the source gives them in different places.

Legend:
CHI Log D procedure = assay type: physicochemical; settings: pH 7.4, CHI Log D
[1] = target: T1, beta-catenin/TCF4 engagement (Homo sapiens, UniProt P35222); experiment: Nano-BRET target engagement assay (B-cat-Halo & TCF4-Luc in HEK293 cells); assay type: cell-based; settings: read-out: NanoBRET Abs IC50
T1 construct: expressed in transfected cells; host or cells: HEK293
T1 sequence (P35222 1-781): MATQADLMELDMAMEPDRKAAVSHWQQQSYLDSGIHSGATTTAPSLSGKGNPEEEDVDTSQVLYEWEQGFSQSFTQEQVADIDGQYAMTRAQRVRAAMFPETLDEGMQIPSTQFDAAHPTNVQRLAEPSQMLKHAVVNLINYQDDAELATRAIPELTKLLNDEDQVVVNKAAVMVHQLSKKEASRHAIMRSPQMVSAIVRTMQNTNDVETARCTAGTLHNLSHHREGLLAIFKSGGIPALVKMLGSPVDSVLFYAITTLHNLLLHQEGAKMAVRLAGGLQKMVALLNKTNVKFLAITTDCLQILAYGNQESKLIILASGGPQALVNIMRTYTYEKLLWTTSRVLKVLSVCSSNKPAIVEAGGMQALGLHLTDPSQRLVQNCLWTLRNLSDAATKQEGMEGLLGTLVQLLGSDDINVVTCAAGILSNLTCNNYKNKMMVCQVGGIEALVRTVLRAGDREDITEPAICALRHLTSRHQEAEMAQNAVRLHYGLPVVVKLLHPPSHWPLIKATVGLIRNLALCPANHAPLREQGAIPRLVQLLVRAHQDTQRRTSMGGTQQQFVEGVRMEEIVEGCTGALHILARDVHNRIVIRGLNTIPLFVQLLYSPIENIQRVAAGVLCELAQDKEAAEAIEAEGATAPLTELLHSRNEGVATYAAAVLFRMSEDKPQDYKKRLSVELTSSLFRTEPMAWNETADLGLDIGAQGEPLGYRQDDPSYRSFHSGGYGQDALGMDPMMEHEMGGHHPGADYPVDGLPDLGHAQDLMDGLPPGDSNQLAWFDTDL

Solubility in PBS = assay type: physicochemical
Summary of the method: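 Steps: ultracentrifuge the peptide PBS solution, inject the supernatant on HPLC, inject a 50 μM peptide DMSO solution as reference, then calculate solubility as area ratio (PBS/DMSO) × 50 uM.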

[2] = target: T2, full-length beta-Catenin (Uniprot ID P35222) (Homo sapiens, UniProt P35222); experiment: Fluorescence polarization IC50 (beta-catenin / 5FAM-TCF4 10-53 competition); assay type: binding; settings: read-out: beta-Catenin FP IC50
T2 construct: 10 nM full-length beta-Catenin (Uniprot ID P35222)
T2 sequence (P35222 1-781): T1 sequence (P35222 1-781)

| chromatographic logD (CHI Log D procedure) | pIC50 ([1]; absolute IC50) | Solubility (Solubility in PBS; Solubility (uM)) | pIC50 [2] | pIC50 [1] | Solubility (Solubility in PBS) | SMILES |
| --- | --- | --- | --- | --- | --- | --- |
| 2.44 | < 4.70 | 47 µM (≈ 87 µg/mL) | 7.64 | – | – | CC(=O)N1CCC[C@]12CC=CCCCC1(CCCC=CCCCOC(=O)N3CC[C@@](C(=O)N[C@@H](CC4CCCCC4)C(=O)N[C@@H](Cc4csc5ccccc45)C(=O)N[C@@H](CO)C(N)=O)(C3)NC(=O)[C@H](CO)NC(=O)[C@H](Cc3ccccc3)NC(=O)[C@H](C)NC(=O)[C@H](C)NC(=O)[C@H](CC(=O)O)NC(=O)[C@H](CC(=O)O)NC1=O)NC(=O)[C@H](CC(C)(C)C)NC(=O)[C@H](CC(=O)O)NC2=O (stereo partly drawn) [I-1106, Ac-PL3-Asp-Npg-B5-Asp-Asp-Ala-Ala-Phe-Ser-PyrS2-Cha-BztA-Ser-NH2] |
| 2.64 | – | – | 7.74 | 4.93 | 10 µM (≈ 20.1 µg/mL) | CC(=O)N1CCC[C@]12CC=CCCCC1(CCCC=CCCCOC(=O)N3CC[C@@](C(=O)N[C@@H](Cc4ccccc4Cl)C(=O)N[C@@H](Cc4csc5ccccc45)C(=O)N[C@@H](CCC(N)=O)C(N)=O)(C3)NC(=O)[C@H](CC3CCCCC3)NC(=O)[C@H](Cc3ccccc3)NC(=O)[C@H](C)NC(=O)[C@H](C)NC(=O)[C@H](CC(=O)O)NC(=O)[C@H](CC(=O)O)NC1=O)NC(=O)[C@H](CC1CCCCC1)NC(=O)[C@H](CC(=O)O)NC2=O (stereo partly drawn) [I-1107, Ac-PL3-Asp-Cha-B5-Asp-Asp-Ala-Ala-Phe-Cha-PyrS2-2C1F-BztA-Gln-NH2] |
| 2.29 | – | 42 µM (≈ 83.6 µg/mL) | 7.74 | < 4.70 | – | CC(=O)N1CCC[C@]12CC=CCCCC1(CCCC=CCCCOC(=O)N3CC[C@@](C(=O)N[C@@H](Cc4ccccc4Cl)C(=O)N[C@@H](Cc4csc5ccccc45)C(=O)N[C@@H](CCC(N)=O)C(N)=O)(C3)NC(=O)[C@H](CO)NC(=O)[C@H](Cc3ccccc3)NC(=O)[C@H](C)NC(=O)[C@H](C)NC(=O)[C@H](CC(=O)O)NC(=O)[C@H](CC(=O)O)NC1=O)NC(=O)[C@H](Cc1cccc3ccccc13)NC(=O)[C@H](CC(=O)O)NC2=O (stereo partly drawn) [I-1108, Ac-PL3-Asp-1NapA-B5-Asp-Asp-Ala-Ala-Phe-Ser-PyrS2-2C1F-BztA-Gln-NH2] |
| 2.31 | – | 45 µM (≈ 89.5 µg/mL) | 7.62 | < 4.70 | – | CC(=O)N1CCC[C@]12CC=CCCCC1(CCCC=CCCCOC(=O)N3CC[C@@](C(=O)N[C@@H](Cc4ccccc4Cl)C(=O)N[C@@H](Cc4csc5ccccc45)C(=O)N[C@@H](CCC(N)=O)C(N)=O)(C3)NC(=O)[C@H](CO)NC(=O)[C@H](Cc3ccccc3)NC(=O)[C@H](C)NC(=O)[C@H](C)NC(=O)[C@H](CC(=O)O)NC(=O)[C@H](CC(=O)O)NC1=O)NC(=O)[C@H](Cc1ccc3ccccc3c1)NC(=O)[C@H](CC(=O)O)NC2=O (stereo partly drawn) [I-1109, Ac-PL3-Asp-2NapA-B5-Asp-Asp-Ala-Ala-Phe-Ser-PyrS2-2C1F-BztA-Gln-NH2] |
| 2.37 | – | – | 7.42 | < 4.70 | 10 µM (≈ 20.2 µg/mL) | CC(=O)N1CCC[C@]12CC=CCCCC1(CCCC=CCCCOC(=O)N3CC[C@@](C(=O)N[C@@H](Cc4ccccc4Cl)C(=O)N[C@@H](Cc4csc5ccccc45)C(=O)N[C@@H](CCC(N)=O)C(N)=O)(C3)NC(=O)[C@H](CC(C)C)NC(=O)[C@H](Cc3ccccc3)NC(=O)[C@H](C)NC(=O)[C@H](C)NC(=O)[C@H](CC(=O)O)NC(=O)[C@H](CC(=O)O)NC1=O)NC(=O)[C@H](Cc1cccc3ccccc13)NC(=O)[C@H](CC(=O)O)NC2=O (stereo partly drawn) [I-1110, Ac-PL3-Asp-1NapA-B5-Asp-Asp-Ala-Ala-Phe-Leu-PyrS2-2C1F-BztA-Gln-NH2] |
| 2.36 | – | – | 7.55 | < 4.70 | 10 µM (≈ 20.2 µg/mL) | CC(=O)N1CCC[C@]12CC=CCCCC1(CCCC=CCCCOC(=O)N3CC[C@@](C(=O)N[C@@H](Cc4ccccc4Cl)C(=O)N[C@@H](Cc4csc5ccccc45)C(=O)N[C@@H](CCC(N)=O)C(N)=O)(C3)NC(=O)[C@H](CC(C)C)NC(=O)[C@H](Cc3ccccc3)NC(=O)[C@H](C)NC(=O)[C@H](C)NC(=O)[C@H](CC(=O)O)NC(=O)[C@H](CC(=O)O)NC1=O)NC(=O)[C@H](Cc1ccc3ccccc3c1)NC(=O)[C@H](CC(=O)O)NC2=O (stereo partly drawn) [I-1111, Ac-PL3-Asp-2NapA-B5-Asp-Asp-Ala-Ala-Phe-Leu-PyrS2-2C1F-BztA-Gln-NH2] |
| 2.49 | – | 28 µM (≈ 55 µg/mL) | 7.70 | < 4.70 | – | CC(=O)N1CCC[C@]12CC=CCCCC1(CCCC=CCCCOC(=O)N3CC[C@@](C(=O)N[C@@H](Cc4ccccc4Cl)C(=O)N[C@@H](Cc4csc5ccccc45)C(=O)N[C@@H](CO)C(N)=O)(C3)NC(=O)[C@H]([C@@H](C)O)NC(=O)[C@H](Cc3ccccc3)NC(=O)[C@H](C)NC(=O)[C@H](C)NC(=O)[C@H](CC(=O)O)NC(=O)[C@H](CC(=O)O)NC1=O)NC(=O)[C@H](Cc1cccc3ccccc13)NC(=O)[C@H](CC(=O)O)NC2=O (stereo partly drawn) [I-1114, Ac-PL3-Asp-1NapA-B5-Asp-Asp-Ala-Ala-Phe-Thr-PyrS2-2C1F-BztA-Ser-NH2] |
| 2.5 | – | 32 µM (≈ 62.8 µg/mL) | 7.55 | 4.61 | – | CC(=O)N1CCC[C@]12CC=CCCCC1(CCCC=CCCCOC(=O)N3CC[C@@](C(=O)N[C@@H](Cc4ccccc4Cl)C(=O)N[C@@H](Cc4csc5ccccc45)C(=O)N[C@@H](CO)C(N)=O)(C3)NC(=O)[C@H]([C@@H](C)O)NC(=O)[C@H](Cc3ccccc3)NC(=O)[C@H](C)NC(=O)[C@H](C)NC(=O)[C@H](CC(=O)O)NC(=O)[C@H](CC(=O)O)NC1=O)NC(=O)[C@H](Cc1ccc3ccccc3c1)NC(=O)[C@H](CC(=O)O)NC2=O (stereo partly drawn) [I-1115, Ac-PL3-Asp-2NapA-B5-Asp-Asp-Ala-Ala-Phe-Thr-PyrS2-2C1F-BztA-Ser-NH2] |
| 2.34 | – | 37 µM (≈ 73.1 µg/mL) | 7.62 | 4.53 | – | COc1cccc(C[C@@H]2NC(=O)[C@H](C)NC(=O)[C@H](C)NC(=O)[C@H](CC(=O)O)NC(=O)[C@H](CC(=O)O)NC(=O)C3(CCCC=CCCCOC(=O)N4CC[C@@](C(=O)N[C@@H](Cc5ccccc5Cl)C(=O)N[C@@H](Cc5csc6ccccc56)C(=O)N[C@@H](CCC(N)=O)C(N)=O)(C4)NC(=O)[C@H](CO)NC2=O)CCCC=CC[C@]2(CCCN2C(C)=O)C(=O)N[C@@H](CC(=O)O)C(=O)N[C@@H](CC2CCCCC2)C(=O)N3)c1 (stereo partly drawn) [I-1118, Ac-PL3-Asp-Cha-B5-Asp-Asp-Ala-Ala-3OMeF-Ser-PyrS2-2C1F-BztA-Gln-NH2] |
| 2.51 | – | 31 µM (≈ 62.4 µg/mL) | 7.59 | 4.71 | – | CC(=O)N1CCC[C@]12CC=CCCCC1(CCCC=CCCCOC(=O)N3CC[C@@](C(=O)N[C@@H](Cc4ccccc4Cl)C(=O)N[C@@H](Cc4csc5ccccc45)C(=O)N[C@@H](CCC(N)=O)C(N)=O)(C3)NC(=O)[C@H](CO)NC(=O)[C@H](Cc3cccc(C(F)(F)F)c3)NC(=O)[C@H](C)NC(=O)[C@H](C)NC(=O)[C@H](CC(=O)O)NC(=O)[C@H](CC(=O)O)NC1=O)NC(=O)[C@H](CC1CCCCC1)NC(=O)[C@H](CC(=O)O)NC2=O (stereo partly drawn) [I-1119, Ac-PL3-Asp-Cha-B5-Asp-Asp-Ala-Ala-3F3MeF-Ser-PyrS2-2C1F-BztA-Gln-NH2] |
| 2.54 | – | 41 µM (≈ 82.6 µg/mL) | 7.07 | < 4.70 | – | CC(=O)N1CCC[C@]12CC=CCCCC1(CCCC=CCCCOC(=O)N3CC[C@@](C(=O)N[C@@H](Cc4ccccc4Cl)C(=O)N[C@@H](Cc4csc5ccccc45)C(=O)N[C@@H](CCC(N)=O)C(N)=O)(C3)NC(=O)[C@H](CO)NC(=O)[C@H](Cc3ccc(C(F)(F)F)cc3)NC(=O)[C@H](C)NC(=O)[C@H](C)NC(=O)[C@H](CC(=O)O)NC(=O)[C@H](CC(=O)O)NC1=O)NC(=O)[C@H](CC1CCCCC1)NC(=O)[C@H](CC(=O)O)NC2=O (stereo partly drawn) [I-1120, Ac-PL3-Asp-Cha-B5-Asp-Asp-Ala-Ala-4F3MeF-Ser-PyrS2-2C1F-BztA-Gln-NH2] |
| 2.31 | – | 41 µM (≈ 81 µg/mL) | 7.74 | 5.04 | – | COc1cccc(C[C@@H]2NC(=O)[C@H](C)NC(=O)[C@H](C)NC(=O)[C@H](CC(=O)O)NC(=O)[C@H](CC(=O)O)NC(=O)C3(CCCC=CCCCOC(=O)N4CC[C@@](C(=O)N[C@@H](Cc5ccccc5Cl)C(=O)N[C@@H](Cc5csc6ccccc56)C(=O)N[C@@H](CCC(N)=O)C(N)=O)(C4)NC(=O)[C@H](CC(C)C)NC2=O)CCCC=CC[C@]2(CCCN2C(C)=O)C(=O)N[C@@H](CC(=O)O)C(=O)N[C@@H](CC(C)(C)C)C(=O)N3)c1 (stereo partly drawn) [I-1121, Ac-PL3-Asp-Npg-B5-Asp-Asp-Ala-Ala-3OMeF-Leu-PyrS2-2C1F-BztA-Gln-NH2] |
